Ki data for 30 compounds are collected here from patent US20070208040A1, “A2A ADENOSINE RECEPTOR ANTAGONISTS” (priority 2006, published 2007).

The Ki is a dissociation constant, usually derived from enzyme kinetics or from competition with a known ligand.

Each structure is given as a SMILES string.

For the assay, the target named is A2A adenosine receptor (UniProt P29274). The assay can be described thus: A2A radioligand binding assay (displacement of 3H-MSX-2). Also on record: species or system human. The settings on record: displacement of 2 nM 3H-MSX-2 from 15 ug A2A membrane, 23° C., 2 hours. The text has this: A tritiated adenosine A2A antagonist, 3-(3-hydroxypropyl)-7-methyl-8-(m-methoxystyryl)-1-propargylxanthine, (3H-MSX-2, specific activity: 80 Ci/mmol), was purchased from American Radiolabeled Chemicals, Inc (St. Louis, Mo.). A tritiated adenosine A1 antagonist, 1,3-Dipropyl-8-cyclopentylxanthine ([^3H]DPCPX, specific activity: 120 Ci/mmol) was purchased from Perkin Elmer (Boston, Mass.). A tritiated adenosine A2a antagonist, 4-(2-[7-amino-2-(2-furyl)[1,2,4]triazolo[2,3-a][1,3,5]triazin-5-ylamino]ethyl)phenol ([^3H]ZM241385 specific activity: 27.4 Ci/mmol) was purchased from American Radiolabeled Chemicals, Inc (St. Louis, Mo.). Adenosine Deaminase (ADA) was purchased from Roche Molecular Biochemicals (Nutley, N.J.). GTP was purchased from Sigma. Concentrated stock solution (10 mM) of compounds was dissolved in dimethylsulfoxide (DMSO), stored at −20° C., and diluted in Tris-EDTA buffer (50 mM Tris and 1 mM EDTA, 10 mM MgCl2, pH 7.4) for use in experiments. The final content of dimethylsulfoxide in Tris-EDTA buffer during experiments was not more than 1%. Male Sprague Dawley rats, weighted 250-400 g, 8-10 weeks old, were purchased from Charles River Labs (Wilmington, Mass.).
HEK293 (Human Embryonic Kidney 293) cells stably expressing human A2A adenosine receptor or human A2B adenosine receptor were maintained in DMEM supplemented with 10% fetal bovine serum, 2 mM L-glutamine, 100 IU/ml penicillin, 50 μg/ml streptomycin and 2 μg/ml puromycin. CHO (Chinese Hamster Ovary) cells stably expressing human A1 adenosine receptor or human A3 adenosine receptor were maintained in F12K medium supplemented with 10% fetal bovine serum, 2 mM L-glutamine, 100 IU penicillin, 50 μg streptomycin and 8 μg/ml puromycin. PC12 (rat pheochromocytoma) cells were cultured in F12K medium supplemented with 10% horse serum and 2.5% fetal bovine serum, 2 mM L-glutamine, 100 IU/ml penicillin, and 50 μg/ml streptomycin. All cells were maintained at 37° C. in a humidified 5% CO2/95% air incubator and recultivated 2 times per week.
Cultured cells in 150 mm^2 dishes were washed once with PBS, detached by scrapping, collected with buffer A (10 mM HEPES, 10 mM EDTA, pH 7.4) containing protease inhibitor cocktail. Cells were then homogenized by a handheld homogenizer at a speed of 4.5 for 1 min. The homogenate was centrifuged by a Beckman ultracentrifuge at a speed of 29,000 × g for 15 min. The pellets were resuspended in buffer HE (10 mM HEPES, 1 mM EDTA, pH 7.4, with protease inhibitor cocktail), centrifuged again at 29,000 × g for 15 min. The crude membrane was resuspended using buffer HE, and protein concentration was measured by the method of Lowery with BSA as standard. Similar procedures were used for membrane preparation for fresh rat tissues. All experimental procedures were done at 4° C. Membranes were aliquot and kept at −80° C.
The binding assays utilized 15 ug of A2A membrane (human recombinant A2A membrane, rat striatal membrane, or PC 12 cell membrane) that had been treated with adenosine deaminase and 50 mM Tris-EDTA buffer (pH=7.4) followed by mixing 2 μL of serially diluted DMSO stock solution of the compounds of this invention at concentrations ranging from 10 μM to 0.1 nM or the control received 2 μL of DMSO alone, then the tritiated antagonist 3-(3-hydroxypropyl)-7-methyl-8-(m-methoxystyryl)-1-propargylxanthine (^3H-MSX-2) in Tris-EDTA buffer (50 mM Tris, 1 mM EDTA, 10 mM MgCl2, pH of 7.4) was added to achieve a final concentration of 2 nM. After incubation at 23° C. for 2 hours, the solutions were filtered using a membrane harvester with multiple washing of the membranes (3×). The filter plates were counted in scintillation cocktail affording the amount of displacement ^3H-MSX-2 by the competitive binding compositions of this invention. Radioligand binding data was analyzed using GraphPad Prism version 4.0 (San Diego, Calif.). […]
Background: Displacement assays read how much labelled ligand stays bound in the presence of the test substance.

On to `Cc1c(C2=N[C@@H](C)CO2)sc2c1c(=O)n(CC(C)C)c(=O)n2C` [LIII, 6-((4S)-4-methyl(1,3-oxazolin-2-yl))-1,5-dimethyl-3-(2-methylpropyl)-1,3-dihydrothiopheno[2,3-d]pyrimidine-2,4-dione], for which the affinity, expressed as Ki, was 304 nM.
Compound `CCn1c(=O)[nH]c2sc(C(=O)NC)c(C)c2c1=O` [XV, (3-ethyl-5-methyl-2,4-dioxo(1,3-dihydrothiopheno[2,3-d]pyrimidin-6-yl))-n-methylcarboxamide] gave an inhibition constant (Ki) of 676 nM. Compared with the last compound, the Ki is about 2.2-fold higher.
In the case of `Cc1c(-c2ncco2)sc2[nH]c(=O)n(CC(C)C)c(=O)c12` [XXIX, 5-methyl-3-(2-methylpropyl)-6-(1,3-oxazol-2-yl)-1,3-dihydrothiopheno[2,3-d]pyrimidine-2,4-dione] it was 75 nM.
Under `Cc1c(C2=NC[C@@H](C)O2)sc2c1c(=O)n(CC(C)C)c(=O)n2C` [LIX, 6-((5R)-5-methyl(1,3-oxazolin-2-yl))-1,5-dimethyl-3-(2-methylpropyl)-1,3-dihydrothiopheno[2,3-d]pyrimidine-2,4-dione] stands 450 nM; under `Cc1c(-c2ccoc2)sc2[nH]c(=O)n(CC(C)C)c(=O)c12` [XXX, 6-(3-furyl)-5-methyl-3-(2-methylpropyl)-1,3-dihydrothiopheno[2,3-d]pyrimidine-2,4-dione], 158 nM; under `CCn1c(=O)[nH]c2sc(-c3cccnc3OC)c(C)c2c1=O` [LV, 3-ethyl-6-(2-methoxy(3-pyridyl))-5-methyl-1,3-dihydrothiopheno[2,3-d]pyrimidine-2,4-dione], 529 nM.
In the case of `Cc1c(-c2cocn2)sc2[nH]c(=O)n(CC(C)C)c(=O)c12` [XXIII, 5-methyl-3-(2-methylpropyl)-6-(1,3-oxazol-4-yl)-1,3-dihydrothiopheno[2,3-d]pyrimidine-2,4-dione] it was 96 nM; in that of `CCn1c(=O)[nH]c2sc(-c3ccc[nH]3)c(C)c2c1=O` [XXVII, 3-ethyl-5-methyl-6-pyrrol-2-yl-1,3-dihydrothiopheno[2,3-d]pyrimidine-2,4-dione], 180 nM.
With `CCn1c(=O)[nH]c2sc3c(c2c1=O)CCCC3` [XI, 3-ethyl-1,3,5,6,7,8-hexahydrobenzo[b]thiopheno[2,3-d]pyrimidine-2,4-dione], the inhibition constant (Ki) worked out at 458 nM. Against the preceding compound, the Ki is about 2.5-fold higher.
In the case of `Cc1c(-c2cccs2)sc2[nH]c(=O)n(CC3CC3)c(=O)c12` [XXXV, 3-(cyclopropylmethyl)-5-methyl-6-(2-thienyl)-1,3-dihydrothiopheno[2,3-d]pyrimidine-2,4-dione] it was 195 nM.
Under `CCCn1c(=O)[nH]c2sc(C3=N[C@@H](C)CO3)c(C)c2c1=O` [XLV, 6-((4S)-4-methyl(1,3-oxazolin-2-yl))-5-methyl-3-propyl-1,3-dihydrothiopheno[2,3-d]pyrimidine-2,4-dione] stands 95 nM.
In the case of `CCOC(=O)c1sc2[nH]c(=O)n(C)c(=O)c2c1C` [XVII, ethyl 3,5-dimethyl-2,4-dioxo-1,3-dihydrothiopheno[2,3-d]pyrimidine-6-carboxylate] it was 715 nM; in that of `CCn1c(=O)[nH]c2sc(-c3ccco3)c(C)c2c1=O` [IV, 3-ethyl-6-(2-furyl)-5-methyl-1,3-dihydrothiopheno[2,3-d]pyrimidine-2,4-dione], 105 nM.
`CC[C@H]1COC(c2sc3c(c2C)c(=O)n(CC(C)C)c(=O)n3C)=N1` [LVIII, 6-((4S)-4-ethyl(1,3-oxazolin-2-yl))-1,5-dimethyl-3-(2-methylpropyl)-1,3-dihydrothiopheno[2,3-d]pyrimidine-2,4-dione] showed an inhibition constant (Ki) of 119 nM. This Ki and that of the compound before are within 1.5-fold of each other.
Under `Cc1c(-c2cocn2)sc2c1c(=O)n(CC(C)C)c(=O)n2C` [XXIV, 1,5-dimethyl-3-(2-propylmethyl)-6-(1,3-oxazol-4-yl)-1,3-dihydrothiopheno[1,3-d]pyrimidine-2,4-dione] stands 165 nM.
Under `Cc1csc2[nH]c(=O)n(C)c(=O)c12` [XIII, 3,5-dimethyl-1,3-dihydrothiopheno[2,3-d]pyrimidine-2,4-dione] stands 648 nM.
As to `CCn1c(=O)[nH]c2sc(-c3ccsc3)c(C)c2c1=O` [XII, 3-ethyl-5-methyl-6-(3-thienyl)-1,3-dihydrothiopheno[2,3-d]pyrimidine-2,4-dione], the Ki was 559 nM.
For `CCn1c(=O)c2c(-c3ccc(C)o3)csc2n(C)c1=O` [XXII, 3-ethyl-1-methyl-5-(5-methyl(2-furyl))-1,3-dihydrothiopheno[2,3-d]pyrimidine-2,4-dione], the affinity corresponds to a Ki of 896 nM.
`CCn1c(=O)[nH]c2sc(C3=NCCO3)c(C)c2c1=O` [VII, 3-ethyl-5-methyl-6-(1,3-oxazolin-2-yl)-1,3-dihydrothiopheno[2,3-d]pyrimidine-2,4-dione] showed an inhibitory constant (Ki) of 152 nM.
Compound `C#CCn1c(=O)c2c(C)c(C(=O)OCC)sc2n(C)c1=O` [XXVI, ethyl 1,5-dimethyl-2,4-dioxo-3-prop-2-ynyl-1,3-dihydrothiopheno[2,3-d]pyrimidine-6-carboxylate] showed a Ki of 49 nM.
Regarding `Cc1c(-c2ccco2)sc2[nH]c(=O)n(CC3CC3)c(=O)c12` [XXXVI, 3-(cyclopropylmethyl)-5-methyl-6-(2-furyl)-1,3-dihydrothiopheno[2,3-d]pyrimidine-2,4-dione], the Ki was 170 nM. Against the preceding compound, the Ki is about 3.5-fold higher.
In the case of `CCn1c(=O)[nH]c2sc(-c3sccc3C)c(C)c2c1=O` [XXXII, 3-ethyl-5-methyl-6-(3-methyl(2-thienyl))-1,3-dihydrothiopheno[2,3-d]pyrimidine-2,4-dione] it was 110 nM; in that of `C#CCn1c(=O)c2c(C)csc2n(C)c1=O` [LII, 1,5-dimethyl-3-prop-2-ynyl-1,3-dihydrothiopheno[2,3-d]pyrimidine-2,4-dione], 720 nM; in that of `Cc1c(-c2ccco2)sc2[nH]c(=O)n(C)c(=O)c12` [XXXIV, 6-(2-furyl)-3,5-dimethyl-1,3-dihydrothiopheno[2,3-d]pyrimidine-2,4-dione], 110 nM.
Under `CCn1c(=O)[nH]c2sc(-c3nccs3)c(C)c2c1=O` [XXXVII, 3-ethyl-5-methyl-6-(1,3-thiazol-2-yl)-1,3-dihydrothiopheno[2,3-d]pyrimidine-2,4-dione] stands 167 nM; under `CNC(=O)c1sc2[nH]c(=O)n(C)c(=O)c2c1C` [VIII, (3,5-dimethyl-2,4-dioxo(1,3-dihydrothiopheno[2,3-d]pyrimidin-6-yl))-n-methylcarboxamide], 274 nM; under `CCn1c(=O)[nH]c2sc(-c3ncco3)c(C)c2c1=O` [V, 3-ethyl-5-methyl-6-(1,3-oxazol-2-yl)-1,3-dihydrothiopheno[2,3-d]pyrimidine-2,4-dione], 134 nM.
Under `CCn1c(=O)c2c(C)c(-c3ccco3)sc2n(C)c1=O` [XXXIX, 3-ethyl-6-(2-furyl)-1,5-dimethyl-1,3-dihydrothiopheno[2,3-d]pyrimidine-2,4-dione] stands 250 nM; under `CCn1c(=O)[nH]c2sc(-c3ccc(OC)nc3)c(C)c2c1=O` [LIV, 3-ethyl-6-(6-methoxy(3-pyridyl))-5-methyl-1,3-dihydrothiopheno[2,3-d]pyrimidine-2,4-dione], 406 nM; under `CC[C@H]1COC(c2sc3[nH]c(=O)n(CC(C)C)c(=O)c3c2C)=N1` [LVI, 6-((4S)-4-ethyl(1,3-oxazolin-2-yl))-5-methyl-3-(2-methylpropyl)-1,3-dihydrothiopheno[2,3-d]pyrimidine-2,4-dione], 58 nM.
